Measured values taken from the NIST ThermoML archive (doi:10.1021/je900759f).

Assay: molar heat capacity at constant pressure
Conditions: 101.33 kPa, Crystal, Vacuum adiabatic calorimetry

O=C([O-])c1ccccc1C(=O)O.[K+] [potassium 2-carboxybenzoate]
Conditions	molar heat capacity at constant pressure [J/K/mol]
78.74 K	81.22
81.08 K	82.76
83.42 K	85
85.62 K	86.29
88.11 K	88.06
90.01 K	90.07
92.06 K	91.25
94.25 K	92.66
96.3 K	94.19
98.21 K	95.73
100.26 K	97.26
102.01 K	98.56
104.21 K	100.09
105.82 K	101.39
107.72 K	102.68
109.48 K	103.75
111.23 K	104.92
112.99 K	106.1
114.45 K	107.52
116.5 K	108.7
118.55 K	109.99
120.9 K	111.65
122.65 K	112.71
126.02 K	114.95
128.9 K	117.28
131.81 K	119.26
134.65 K	120.84
137.63 K	123.15
140.07 K	124.62
143.44 K	126.5
146.3 K	128.75
149.29 K	130.28
152.07 K	132.04
155.1 K	134.02
158.03 K	135.88
161.04 K	137.98
163.86 K	139.4
166.86 K	141.12
169.72 K	142.95
172.65 K	144.78
175.6 K	146.73
178.52 K	148.14
181.46 K	150.06
185.51 K	152.18
189.58 K	154.71
192.49 K	156.69
195.39 K	157.97
198.33 K	160.11
201.39 K	161.41
204.34 K	163.34
207.27 K	164.59
210.19 K	166.59
213.12 K	168.36
216.13 K	169.91
219.11 K	171.34
222.05 K	173.08
224.97 K	174.49
228.05 K	176.26
230.83 K	177.91
233.76 K	178.97
236.83 K	180.98
239.77 K	182.23
243.54 K	184.12
247.46 K	186.25
250.44 K	188.14
253.42 K	189.68
256.45 K	190.76
259.37 K	192.3
262.36 K	193.82
265.34 K	195.71
268.16 K	196.89
271.14 K	198.67
274.12 K	200.21
277.08 K	201.26
280.08 K	203.28
283.06 K	204.58
286.04 K	205.65
289.09 K	207.51
292.02 K	208.57
294.94 K	210.1
298.02 K	211.04
300.8 K	213.17
303.87 K	214.11
306.8 K	215.52
309.73 K	216.94
312.51 K	218.12
315.58 K	219.65
318.36 K	221.3
321.29 K	222.01
324.37 K	223.43
327.29 K	224.96
330.37 K	226.61
333.44 K	228.14
336.37 K	229.67
339.3 K	230.85
342.37 K	232.15
345.3 K	233.33
348.37 K	234.39
351.3 K	236.4
354.23 K	237.46
357.16 K	239.23
360.08 K	240.52
363.01 K	241.35
365.94 K	243
368.87 K	243.71
371.83 K	244.81
374.87 K	246.77
377.94 K	248.3
380.93 K	249.42
383.91 K	250.96
386.89 K	252.02
390.03 K	253.44
393.01 K	254.98
395.98 K	255.93
